Test systems include SW-620 colon; OVCAR-5 ovarian; SF-539 CNS; CCRF-CEM leukemia; SK-MEL-28 melanoma; MOLT-4 leukemia; SR leukemia; A498 renal; DU-145 prostate; HCT-116 colon.
Assay in all cases: inhibition of tumour cell growth, NCI panel, 48 h

This passage reports TGI and GI50 results from PubChem BioAssay (NCI).

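Five concentrations, 48 hours, 96-well plates. Abbreviation: GI50, concentration required for 50% inhibition of growth. The concentration for full growth arrest is given as TGI.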 A value given as a limit tells only on which side of the number the result lay.

Regarding `c1ccc2c(c1)-c1ccccc1C2NC1=NCCO1`, the TGI was > 100 µM in the assay with SW-620 colon; > 100 µM in the assay on OVCAR-5 ovarian; 49.6 µM with SF-539 CNS; > 100 µM in the assay with CCRF-CEM leukemia; 55.7 µM with SK-MEL-28 melanoma; > 100 µM with MOLT-4 leukemia. Moreover, the TGI was 79.3 µM with SR leukemia, 34 µM with A498 renal, > 100 µM with DU-145 prostate and 32.1 µM with HCT-116 colon.
Turning to `CC1(C)N([O-])[N+](=O)C1(C)O` (stereo not given), the TGI in the assay with SW-620 colon, in the assay with OVCAR-5 ovarian, with SF-539 CNS, in the assay on CCRF-CEM leukemia, in the assay with SK-MEL-28 melanoma and in the assay with MOLT-4 leukemia was > 100 µM in each case. The TGI with SR leukemia, with A498 renal, in the assay on DU-145 prostate and in the assay on HCT-116 colon was > 100 µM each time.
Consider `COc1ccc(C=O)cc1OS(=O)(=O)C(F)(F)C(F)(F)C(F)(F)C(F)(F)F`, for which the TGI was > 87.4 µM in the assay on SW-620 colon; > 100 µM in the assay on OVCAR-5 ovarian; 41 µM in the assay on SF-539 CNS; 63.1 µM with CCRF-CEM leukemia; 97.5 µM with SK-MEL-28 melanoma; > 20 µM in the assay on MOLT-4 leukemia. For the same molecule, the TGI with SR leukemia was > 24.4 µM; in the assay with A498 renal it was > 68.2 µM; with DU-145 prostate it was > 100 µM; in the assay with HCT-116 colon, > 70.4 µM.
As for `COc1cc(N(CCCl)CCCl)ccc1/C=N\NC(=O)c1cccnc1`, the GI50 in the assay with SW-620 colon is 30.4 µM; in the assay with OVCAR-5 ovarian, 8.34 µM; in the assay on SF-539 CNS, 27.3 µM; with CCRF-CEM leukemia, 23 µM; in the assay with SK-MEL-28 melanoma, 48.4 µM; in the assay with MOLT-4 leukemia, 22.3 µM. In addition, the GI50 with SR leukemia was 13.7 µM; in the assay with A498 renal it was 0.523 µM; in the assay on DU-145 prostate, 24.6 µM; in the assay with HCT-116 colon, 26 µM. Also, the TGI with SW-620 colon was > 100 µM; in the assay on OVCAR-5 ovarian it was 60.1 µM; in the assay on SF-539 CNS it was > 100 µM; with CCRF-CEM leukemia, > 100 µM; with SK-MEL-28 melanoma, > 100 µM; in the assay on MOLT-4 leukemia it was 67.4 µM. The TGI in the assay with SR leukemia was > 100 µM; in the assay on A498 renal it was 1.98 µM; in the assay on DU-145 prostate it was > 100 µM; in the assay with HCT-116 colon, > 100 µM.
Turning to `Cc1ccc(S(=O)(=O)Nn2c(S)c(C#N)c(-c3ccc(Cl)cc3)c(C#N)c2=O)cc1`, the TGI in the assay with SW-620 colon was 51.7 µM; with OVCAR-5 ovarian it was > 100 µM; with SF-539 CNS, 39.6 µM; in the assay on CCRF-CEM leukemia, > 100 µM; in the assay with SK-MEL-28 melanoma, > 100 µM; in the assay on MOLT-4 leukemia it was > 100 µM. The TGI in the assay with SR leukemia, in the assay on A498 renal, with DU-145 prostate and in the assay on HCT-116 colon was > 100 µM throughout.
With `Nc1ccc(C2SCC(=O)N2NS(=O)(=O)c2cccc(C(=O)O)c2)cc1` (stereo not given), the TGI in the assay on SW-620 colon, in the assay with OVCAR-5 ovarian, in the assay with SF-539 CNS, in the assay with CCRF-CEM leukemia, in the assay with SK-MEL-28 melanoma and in the assay with MOLT-4 leukemia was > 100 µM throughout. In addition, the TGI in the assay on SR leukemia, in the assay with A498 renal, with DU-145 prostate and in the assay with HCT-116 colon was > 100 µM in each case.
As to `Nc1ncnc2c1ccn2-c1cccc(NC(=O)c2ccc(N3CCOCC3)c(C(F)(F)F)c2)c1`, the GI50 with SW-620 colon was 4.23 µM; in the assay on OVCAR-5 ovarian, 3 µM; in the assay on SF-539 CNS it was 2.39 µM; with CCRF-CEM leukemia, 2.07 µM; with SK-MEL-28 melanoma it was 4.76 µM; in the assay with MOLT-4 leukemia, 3.05 µM. Further, the GI50 in the assay with SR leukemia is 3.38 µM; in the assay on A498 renal it was 3.06 µM; in the assay on DU-145 prostate, 3.2 µM; in the assay on HCT-116 colon, 2.71 µM. Moreover, the TGI was 17.8 µM with SW-620 colon; 21.1 µM in the assay with OVCAR-5 ovarian; 15.4 µM in the assay with SF-539 CNS; 11.8 µM with CCRF-CEM leukemia; 23 µM with SK-MEL-28 melanoma; 20.1 µM in the assay on MOLT-4 leukemia. Further, the TGI was found to be 20.7 µM in the assay with SR leukemia, 12.8 µM in the assay with A498 renal, 12.1 µM with DU-145 prostate and 10.3 µM in the assay with HCT-116 colon.
In the case of `O=C(NC(OCc1ccccc1)(C(F)(F)F)C(F)(F)F)OCc1ccccc1`, the TGI in the assay on SW-620 colon was found to be 31.1 µM; in the assay on OVCAR-5 ovarian, 27.4 µM; in the assay on SF-539 CNS, 31.1 µM; in the assay on CCRF-CEM leukemia it was 34.9 µM; in the assay with SK-MEL-28 melanoma, 31.5 µM; with MOLT-4 leukemia, 38.6 µM. The TGI with SR leukemia was 26.8 µM; in the assay on A498 renal, 31.6 µM; in the assay with DU-145 prostate, 30.3 µM; in the assay on HCT-116 colon, 29.9 µM.
Regarding `COc1ccc2nc3cc(Cl)ccc3c(NCCCCCC(=O)NC(COc3ccc4ccc5cccnc5c4n3)COc3ccc4ccc5cccnc5c4n3)c2c1`, the TGI came to 33 µM with SW-620 colon; 47.9 µM with OVCAR-5 ovarian; 30.6 µM with SF-539 CNS; 10.5 µM in the assay with CCRF-CEM leukemia; 49 µM in the assay with SK-MEL-28 melanoma; 12.7 µM in the assay with MOLT-4 leukemia. The TGI with SR leukemia was found to be 12.3 µM; with A498 renal it was 31 µM; in the assay on DU-145 prostate it was 23.6 µM; in the assay with HCT-116 colon, 23.5 µM.
Regarding `Cc1ccc(-c2cc(=O)c(=O)[nH][nH]2)cc1`, the TGI in the assay on SW-620 colon, with OVCAR-5 ovarian, in the assay on SF-539 CNS, in the assay with CCRF-CEM leukemia, in the assay on SK-MEL-28 melanoma and in the assay with MOLT-4 leukemia was > 100 µM throughout. Also, the TGI in the assay on SR leukemia, in the assay on A498 renal, in the assay with DU-145 prostate and with HCT-116 colon was > 100 µM each time.
For `COCCCNc1c2ccccc2nc2ccccc12`, the TGI was 12.6 µM in the assay with SW-620 colon; 6.93 µM in the assay on OVCAR-5 ovarian; 8.59 µM in the assay on SF-539 CNS; 60.6 µM with CCRF-CEM leukemia; 6.54 µM in the assay with SK-MEL-28 melanoma; > 100 µM with MOLT-4 leukemia. Besides, the TGI was determined as 12.1 µM in the assay on SR leukemia, 15.2 µM with A498 renal, 9.75 µM in the assay with DU-145 prostate and 15.7 µM in the assay on HCT-116 colon.
For `NS(=O)(=O)c1ccc(NC(=O)c2ccc3nc4ccccc4c(Nc4ccc(S(N)(=O)=O)cc4)c3c2)cc1`, the TGI in the assay with SW-620 colon, with OVCAR-5 ovarian, with SF-539 CNS, with CCRF-CEM leukemia, in the assay with SK-MEL-28 melanoma and with MOLT-4 leukemia was > 100 µM throughout. Besides, the TGI with SR leukemia, with A498 renal, with DU-145 prostate and in the assay with HCT-116 colon was > 100 µM each time.
For `CCCCCCCCCCCCc1ccsc1-c1ccc(-c2ccc(-c3sccc3CCCCCCCCCCCC)s2)s1`, the TGI in the assay with SW-620 colon, in the assay with OVCAR-5 ovarian, in the assay with SF-539 CNS, in the assay on CCRF-CEM leukemia, in the assay on SK-MEL-28 melanoma and in the assay on MOLT-4 leukemia was > 100 µM in each case. The TGI in the assay on SR leukemia, in the assay on A498 renal, in the assay with DU-145 prostate and in the assay on HCT-116 colon was > 100 µM in each case.
As for `CCOC(=O)CC1Nc2ccccc2C12CCc1c([nH]c3ccccc13)C2C(=O)OCC` (stereo not given), the TGI with SW-620 colon, in the assay on OVCAR-5 ovarian, in the assay on SF-539 CNS, with CCRF-CEM leukemia, with SK-MEL-28 melanoma and with MOLT-4 leukemia was > 100 µM in each case. Besides, the TGI with SR leukemia, in the assay with A498 renal, in the assay on DU-145 prostate and in the assay with HCT-116 colon was > 100 µM throughout.
`CN1CCc2c(sc3ncn(Nc4ccc(F)cc4)c(=N)c23)C1`: the TGI in the assay on SW-620 colon, with OVCAR-5 ovarian, with SF-539 CNS, with CCRF-CEM leukemia, in the assay with SK-MEL-28 melanoma and in the assay on MOLT-4 leukemia was > 100 µM in each case. Besides, the TGI in the assay with SR leukemia, in the assay with A498 renal, in the assay on DU-145 prostate and in the assay on HCT-116 colon was > 100 µM in each case.
Turning to `CC(C)C(=O)/C=C/c1c(Cl)cccc1Cl`, the TGI in the assay on SW-620 colon was 9.13 µM; in the assay on OVCAR-5 ovarian, 11.3 µM; in the assay on SF-539 CNS, 7.44 µM; in the assay on CCRF-CEM leukemia, > 100 µM; in the assay on SK-MEL-28 melanoma it was 20.5 µM; in the assay with MOLT-4 leukemia, > 100 µM. Moreover, the TGI in the assay with SR leukemia is > 100 µM; with A498 renal, 35.5 µM; in the assay with DU-145 prostate it was 11.8 µM; with HCT-116 colon it was 5.83 µM.
As to `COc1ccc(CNc2nc3cc(C(F)(F)F)ccc3nc2C(=O)O)cc1`, the TGI is > 100 µM with SW-620 colon; 94.7 µM in the assay with OVCAR-5 ovarian; 49.2 µM with SF-539 CNS; > 100 µM in the assay with CCRF-CEM leukemia; > 100 µM with SK-MEL-28 melanoma; 52.6 µM in the assay with MOLT-4 leukemia. Besides, the TGI is 56.1 µM with SR leukemia, 53 µM with A498 renal, > 100 µM in the assay on DU-145 prostate and 41 µM in the assay with HCT-116 colon.
As for `C=C(C)CCC(O)[C@](C)(O)[C@H]1[C@H](O)C[C@@]2(C)[C@@H]3CCc4c(cc(OC5OC(CO)C(O)C(O)C5O)c(O)c4C)C3(C)C(=O)C[C@]12C` (stereo not given in full), the TGI in the assay on SW-620 colon, with OVCAR-5 ovarian, in the assay with SF-539 CNS, in the assay on CCRF-CEM leukemia, in the assay with SK-MEL-28 melanoma and with MOLT-4 leukemia was > 100 µM throughout. For the same molecule, the TGI with SR leukemia, in the assay with A498 renal, with DU-145 prostate and in the assay on HCT-116 colon was > 100 µM throughout.
As for `COC(=O)C1Cc2cc3c(cc2C1)CCC3`, the TGI with SW-620 colon, with OVCAR-5 ovarian, in the assay with SF-539 CNS, with CCRF-CEM leukemia, in the assay on SK-MEL-28 melanoma and in the assay on MOLT-4 leukemia was > 100 µM in each case. In addition, the TGI with SR leukemia, with A498 renal, with DU-145 prostate and in the assay on HCT-116 colon was > 100 µM in each case.
Turning to `COc1cc(OC)c(/C=N\Nc2nc3ccccc3c(=O)n2-c2ccccc2)c(OC)c1`, the TGI in the assay with SW-620 colon is > 100 µM; in the assay on OVCAR-5 ovarian, > 100 µM; with SF-539 CNS, 39.3 µM; in the assay with CCRF-CEM leukemia, 51.6 µM; in the assay on SK-MEL-28 melanoma it was 87.2 µM; in the assay with MOLT-4 leukemia it was 77.1 µM. Further, the TGI in the assay with SR leukemia is > 100 µM; in the assay on A498 renal, 41.1 µM; in the assay on DU-145 prostate, > 94.1 µM; in the assay on HCT-116 colon it was 40.6 µM.
